Where no end group is shown, it is not given here.
Tests used:
[1] = molecular target: T1, Ca^2+/CaM (Homo sapiens, UniProt P0DP23); assay: NMR (HSQC, 3D 15N-edited HSQC-NOESY, TALOS+) of 15N-/13C-labeled Fas-Pep2; format: physicochemical
T1 construct: made in house
Experimental: NMR data were collected at 35°C on a Bruker Avance II (700 MHz ^1H) spectrometer equipped with a cryogenic triple-resonance probe, processed with NMRPIPE [35] and analyzed with NMRVIEW [36] or CCPN Analysis. […] For signal assignments of the complexes, ^13C-, ^15N-, or ^13C-/^15N-labeled Ca^2+/CaM at ~400–500 μM was mixed with unlabeled Fas-Pep1 (in 100% DMSO-d6) or Fas-Pep2 at 1.5:1 peptide:Ca^2+/CaM. […] The backbone atom resonances of Ca^2+/CaM complexes with Fas-Pep1 and Fas-Pep2 were assigned using HNCA, HN(CO)CA, HNCACB, HNCO, HN(CO)CACB and ^15N-edited NOESY-HSQC and TOCSY-HSQC experiments. These experiments have been also collected on ^15N-, or ^13C-/^15N-labeled Fas-Pep2 in complex with unlabeled Ca^2+/CaM to confirm the α-helical character of Fas-Pep2 when bound to Ca^2+/CaM. The chemical shifts of Ca^2+/CaM-bound Fas-Pep2 were used to predict its order parameters and secondary structure content in TALOS+.[38] Combined ^1H-^15N chemical shift changes were calculated as ΔδHN = [(ΔδH)^2+(ΔδN/5)^2]^1/2, where ΔδH and ΔδN are the ^1H and ^15N chemical shift changes, respectively. Kd values were calculated by non-linear least-square fitting algorithm in Origin software (OriginLab, Northampton, MA) using the equation: ΔδHN=ΔδHN^max((Kd+L0+P0)−((Kd+L0+P0)^2−4*P0*L0)^0.5)/(2*P0) where ΔδHN^max is the chemical shift change between complex and free protein, L0 total concentration of ligand, and P0 total concentration of protein.
Far-UV CD spectra of Ca^2+/CaM, Fas-Pep1, Fas-Pep2 and their complexes have been obtained to determine whether formation of the complexes induce any major changes in the secondary structures of the peptides and/or Ca^2+/CaM protein. […] The CD spectra of the complexes are similar to those of Ca^2+/CaM with features distinctive of an α-helical type. Relatively minor changes are observed in the CD signal of Ca^2+/CaM upon binding to FasDD peptides. […] Induction of the α-helical character of Fas-Pep2 upon binding to Ca^2+/CaM has been confirmed by NMR spectroscopy. […]

[2] = molecular target: T1, Ca^2+/CaM; assay: 2D 1H-13C HMQC of 13C-labeled Ca^2+/CaM methionine methyl groups; format: binding
From the text: In the second approach, we assessed the role of hydrophobic surfaces located on the N- and C-terminal lobes of Ca^2+/CaM. These hydrophobic surfaces, which contribute to the flexibility and function of Ca^2+/CaM, are only formed when Ca^2+ is bound.[24] Ca^2+ binding induces a helical rearrangement, leading to exposure of eight methionine (Met) residues.[46, 47] Met residues are essential for the unique promiscuous binding behavior of Ca^2+/CaM to target proteins.[47] The methyl groups of Met residues are useful “NMR reporters” and widely used to probe for target binding.[34, 42, 47–49] Five Met residues (36, 51, 71, 72 and 76) are located in the N-terminal lobe and four (109, 124, 144, and 145) are located within the hydrophobic patch in the C-terminal lobe (Fig 8A). To assess whether the N- and C-terminal hydrophobic surfaces contribute to the binding of FasDD peptides, we collected 2D ^1H-^13C HMQC data on a uniformly ^13C-labeled Ca^2+/CaM sample as titrated with Fas-Pep1 or Fas-Pep2. Addition of a substoichiometric amount of Fas-Pep1 (0.5:1 peptide:Ca^2+/CaM) led to a decrease in the intensity of ^1H-^13C signals of M51, M71, M72, M109, M124 and M145 (Fig 8B, upper panel). Minimal or no chemical shift changes have been observed for signals corresponding to M76 and M144. Further addition of Fas-Pep1 led to appearance of new signals (Fig 8B). […]

[3] = molecular target: T1, Ca^2+/CaM; assay: Isothermal titration calorimetry (ITC), Ca^2+/CaM titrated into peptide; format: binding
Experimental: Thermodynamic parameters of Ca^2+/CaM binding to Fas-Pep1 and Fas-Pep2 peptides were determined using an Auto-iTC200 microcalorimeter (Malvern Instruments). […] Heat of reaction of Ca^2+/CaM was measured over 19 injections at 25°C for Fas-Pep1 or 35°C for Fas-Pep2. Heat of dilution was measured by titrating Ca^2+/CaM into buffer. Data analysis was performed using the Microcal Origin package (ver. 8.1). Baseline corrections were performed by subtracting heat of dilution from the raw Ca^2+/CaM-peptide titration data. Binding curves were analyzed and dissociation constants (Kd) were determined by nonlinear least-square fitting of the baseline-corrected data. The formula used to fit the data as one binding site is: ΔQ(i)=Q(i)+(dVi/Vo)[(Q(i)+Q(i−1))/2]–Q(i–1) where ΔQ(i) is the heat released at i^th injection, Q(i) is the total heat content of the solution, dVi is injection volume, and Vo is total volume. Three replicate titration experiments were typically performed for each peptide.
Although it is recognized that the most frequent mechanism of CaM binding to target proteins involves the hydrophobic surfaces on the N- and C-terminal lobes,[23] electrostatic interactions also contribute to the formation and stabilization of CaM-protein complexes since CaM is acidic and CaM-binding motifs are often basic.[44, 45] The thermodynamic parameters of binding and the relative contribution of hydrophobic vs. electrostatic factors are often assessed by ITC methods, yielding various parameters such as dissociation constant (Kd), stoichiometry (n), enthalpy change (ΔH°) and entropy change (ΔS°). The thermodynamic parameters of Ca^2+/CaM binding to Fas-Pep1 and Fas-Pep2 were assessed by ITC.

[4] = as Kd (ITC), 25°C Fas-Pep1, 35°C Fas-Pep2

- thermodynamic driving force of binding ([3]; ITC): enthalpically driven
- n (stoichiometry, ITC) ([3]; as Kd (ITC)): 0.9
- ΔH° [3, 4]: -14.2 kcal/mol
- ΔS° [3, 4]: -18.8 cal/mol/K
Sequence: VQDTAEQKVQLLRNWHQLHGKKEAYDTLIKDLKKANLC [Fas-Pep2]
- conformation when bound to Ca^2+/CaM (NOESY) ([1]; 3D 15N-edited HSQC-NOESY): adopts an α-helical conformation upon binding to CaM
- conformation of free peptide (NMR) ([1]; 15N-Fas-Pep2, 1H-15N HSQC, 35°C, pH 7.0): lack of ordered structure
- conformation when bound to Ca^2+/CaM (chemical shift index, TALOS+) ([1]; prediction from measured chemical shifts): adopts an α-helical conformation upon binding to Ca^2+/CaM
- CSPs of Met resonances on binding [2]: Notable CSPs are also observed in all of the ^1H-^13C resonances of Met residues

Reference: paper PMC4703387, “Identification of the Calmodulin-Binding Domains of Fas Death Receptor” (PLoS ONE, 2016)
